# Measurements reported in US20190327974A1, “SYNERGISTS FOR IMPROVED PESTICIDES” (priority 2017, published 2019).
# Legend:
# [1] = molecular target: Culex quinquefasciatus CBE (Culex quinquefasciatus, UniProt Q23734); test: Inhibition of insect CBEs, 4-NPB substrate; format: biochemical; settings: n=3
# Experimental: (§1) Assays were performed with 4-NPB as the substrate.
# Anopheles gambiae CBE = test: Inhibition of insect CBEs, 4-NPB substrate; format: biochemical; settings: n=3
# Experimental: as §1
# Aedes aegypti CBE = test: Inhibition of insect CBEs, 4-NPB substrate; format: biochemical; settings: n=3
# Experimental: as §1
# [2] = test system: HB-2 and MDA-MB-231 human cell lines; test: Cell toxicity, two human cell lines HB-2 and MDA-MB-231; format: cell-based; settings: 48 h, up to 100 μM
# Experimental: FIG. 13 depicts that boronic acids show little cell toxicity. Compounds 1-5 as well as 3.9 and 3.10 were incubated for 48 h with two different human cell lines HB-2 and MDA-MB-231 at 7 concentrations up to 100 μM. Cell viability was measured after 48 h using Cell Titer Glo assay.
# A seven-point, two-fold dose response series, with a 100 uM as the upper limit and a DMSO-only control point was generated using an Echo 550 liquid handler (Labcyte Inc.) in 384-well plates. Subsequently, the human breast cell lines MDA-MB-231 (tumorigenic) and HB2 (non-tumorigenic) were seeded (1000 cells/well) using a multi-drop Combi (Thermo Fisher Scientific) on top of the compounds. Plates were then incubated at 37° C. and 5% CO2 for 48 hours upon which cell viability was assessed by adding CellTiter-Glo® (Promega) to the reaction. The luminescence signal was measured on a Pherastar FS multi-mode plate reader (BMG Labtech).
# DPP8 = molecular target: T1, DPP8 (Homo sapiens, UniProt Q6V1X1); test: Protease selectivity panel; format: biochemical; settings: 100 μM compound, n = 2
# T1 construct: purchased ENZO
# Experimental: (§2) Test compounds were dissolved in 100% DMSO to make 10 mM stock. Final compound concentration in assay is […]. Compounds were tested in duplicate wells at single concentration and the final concentration of DMSO in all assays was kept at 1%. Five reference compounds, AEBSF, Carfilzomib, Granzyme B Inhibitor II, Dec-RVKR-CMK, and Teneligliptin hydrobromide, were tested in an identical manner with 8 concentration points at 5× dilutions.
# GranzymeK = molecular target: T2, GranzymeK (Homo sapiens, UniProt P49863); test: Protease selectivity panel; format: biochemical; settings: 100 μM compound, n = 2
# T2 construct: purchased ENZO
# T2 sequence (P49863 27-264): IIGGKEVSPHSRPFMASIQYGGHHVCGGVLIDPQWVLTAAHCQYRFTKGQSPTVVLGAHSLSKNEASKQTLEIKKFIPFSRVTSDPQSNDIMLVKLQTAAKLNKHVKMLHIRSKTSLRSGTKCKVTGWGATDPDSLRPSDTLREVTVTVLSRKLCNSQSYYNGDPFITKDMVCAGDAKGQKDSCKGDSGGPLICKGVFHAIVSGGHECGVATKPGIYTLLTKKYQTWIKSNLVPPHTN
# Experimental: as §2
# GranzymeB = molecular target: T3, GranzymeB (Homo sapiens, UniProt P10144); test: Protease selectivity panel; format: biochemical; settings: 100 μM compound, n = 2
# T3 construct: purchased ENZO
# Experimental: as §2
# Plasmin = molecular target: T4, Plasmin (Homo sapiens, UniProt P00747); test: Protease selectivity panel; format: biochemical; settings: 100 μM compound, n = 2
# T4 construct: purchased R&D Systems
# Experimental: as §2
# Kallikrein11 = molecular target: T5, Kallikrein11 (Homo sapiens, UniProt Q9UBX7); test: Protease selectivity panel; format: biochemical; settings: 100 μM compound, n = 2
# T5 construct: purchased R&D Systems
# T5 sequence (Q9UBX7 54-282): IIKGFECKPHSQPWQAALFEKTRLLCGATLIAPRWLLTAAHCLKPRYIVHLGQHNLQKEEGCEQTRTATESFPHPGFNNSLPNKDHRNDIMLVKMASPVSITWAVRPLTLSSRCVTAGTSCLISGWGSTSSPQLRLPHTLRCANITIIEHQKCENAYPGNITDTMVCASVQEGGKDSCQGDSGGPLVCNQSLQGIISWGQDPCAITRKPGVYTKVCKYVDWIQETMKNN
# Experimental: as §2
# PSMB6 = molecular target: T6, PSMB6 (Homo sapiens, UniProt P28072); test: Protease selectivity panel; format: biochemical; settings: 100 μM compound, n = 2
# T6 construct: purchased BOSTON-BIOCHEM
# Experimental: as §2
# DPP4 = molecular target: T7, DPP4 (Homo sapiens, UniProt P27487); test: Protease selectivity panel; format: biochemical; settings: 100 μM compound, n = 2
# T7 construct: purchased ENZO
# Experimental: as §2
# Matriptase = molecular target: T8, Matriptase (Homo sapiens, UniProt Q9Y5Y6); test: Protease selectivity panel; format: biochemical; settings: 100 μM compound, n = 2
# T8 construct: purchased R&D Systems
# T8 sequence (Q9Y5Y6 1-855): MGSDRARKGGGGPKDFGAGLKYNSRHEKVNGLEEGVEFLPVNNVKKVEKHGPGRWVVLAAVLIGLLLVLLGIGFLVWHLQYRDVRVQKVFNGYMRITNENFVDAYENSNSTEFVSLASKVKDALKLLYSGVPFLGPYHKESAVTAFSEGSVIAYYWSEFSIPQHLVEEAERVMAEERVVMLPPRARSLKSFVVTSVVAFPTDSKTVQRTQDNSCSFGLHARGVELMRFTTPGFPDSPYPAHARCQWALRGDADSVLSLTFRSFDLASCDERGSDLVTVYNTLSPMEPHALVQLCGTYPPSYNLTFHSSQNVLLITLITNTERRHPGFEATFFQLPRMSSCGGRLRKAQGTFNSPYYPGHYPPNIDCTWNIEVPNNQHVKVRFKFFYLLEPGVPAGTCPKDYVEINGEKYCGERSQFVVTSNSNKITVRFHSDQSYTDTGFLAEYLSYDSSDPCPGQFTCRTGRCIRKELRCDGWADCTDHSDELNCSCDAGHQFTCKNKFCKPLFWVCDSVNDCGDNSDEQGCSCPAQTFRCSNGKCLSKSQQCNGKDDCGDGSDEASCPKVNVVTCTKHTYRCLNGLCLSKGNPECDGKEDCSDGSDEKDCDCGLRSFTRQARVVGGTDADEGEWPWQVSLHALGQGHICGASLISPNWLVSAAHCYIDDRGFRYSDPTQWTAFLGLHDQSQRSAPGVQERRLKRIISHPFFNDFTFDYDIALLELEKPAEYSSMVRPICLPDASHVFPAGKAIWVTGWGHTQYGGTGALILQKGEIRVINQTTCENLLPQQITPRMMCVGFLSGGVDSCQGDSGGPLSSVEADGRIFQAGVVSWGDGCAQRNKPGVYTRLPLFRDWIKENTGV
# Experimental: as §2
# PSMB5 = molecular target: T9, PSMB5 (Homo sapiens, UniProt P28074); test: Protease selectivity panel; format: biochemical; settings: 100 μM compound, n = 2
# T9 construct: purchased BOSTON-BIOCHEM
# Experimental: as §2
# PSMB10 = molecular target: T10, PSMB10 (Homo sapiens, UniProt P40306); test: Protease selectivity panel; format: biochemical; settings: 100 μM compound, n = 2
# T10 construct: purchased BOSTON-BIOCHEM
# Experimental: as §2
compound,measurement,setting,value
"CC(C)Oc1cc(Br)cc(B(O)O)c1 [Compound 3.7, 3-Bromo-5-isopropoxyphenylboronic acid]",Ki,[1],900 nM
same,Ki,Anopheles gambiae CBE,330 nM
same,Ki,Aedes aegypti CBE,2.6 µM
"OB(O)c1ccc(OCc2ccccc2F)c(Cl)c1 [Compound 5, 3-Chloro-4(2′-fluorobenzyloxy) phenylboronic acid]",cellular toxicity,[2],low toxicity against HB-2
same,Ki,[1],420 nM
same,Ki,Anopheles gambiae CBE,30 nM
same,Ki,Aedes aegypti CBE,40 µM
OB(O)c1cc(Br)cc(OCc2ccccc2)c1 [Compound 3.9],inhibition at 100 µM,DPP8,53%
same,inhibition at 100 µM,GranzymeK,14%
same,inhibition at 100 µM,GranzymeB,17%
same,inhibition at 100 µM,Plasmin,16%
same,inhibition at 100 µM,Kallikrein11,-148%
same,inhibition at 100 µM,PSMB6,54%
same,inhibition at 100 µM,DPP4,2%
same,inhibition at 100 µM,Matriptase,5%
same,inhibition at 100 µM,PSMB5,34%
same,inhibition at 100 µM,PSMB10,78%
same,cellular toxicity,[2],do not exhibit any cellular toxicity up to 100 μM
"OB(O)c1cc(Br)cc(Oc2ccccc2)c1 [Compound 3.10, 3-Bromo-5-phenoxyfenylboronic acid]",inhibition at 100 µM,DPP8,37%
same,inhibition at 100 µM,GranzymeK,3%
same,inhibition at 100 µM,GranzymeB,11%
same,inhibition at 100 µM,Plasmin,-2%
same,inhibition at 100 µM,Kallikrein11,-43%
same,inhibition at 100 µM,PSMB6,27%
same,inhibition at 100 µM,DPP4,-3%
same,inhibition at 100 µM,Matriptase,4%
same,inhibition at 100 µM,PSMB5,2%
same,inhibition at 100 µM,PSMB10,45%
same,cellular toxicity,[2],do not exhibit any cellular toxicity up to 100 μM
OB(O)c1cc(Br)cc(N2CCCC2)c1 [Compound 3],inhibition at 100 µM,DPP8,42%
same,inhibition at 100 µM,GranzymeK,5%
same,inhibition at 100 µM,GranzymeB,3%
same,inhibition at 100 µM,Plasmin,13%
same,inhibition at 100 µM,Kallikrein11,-71%
same,inhibition at 100 µM,PSMB6,16%
same,inhibition at 100 µM,DPP4,6%
same,inhibition at 100 µM,Matriptase,-1%
same,inhibition at 100 µM,PSMB5,3%
same,inhibition at 100 µM,PSMB10,43%
same,Ki,[1],4700 nM
same,Ki,Anopheles gambiae CBE,790 nM
same,Ki,Aedes aegypti CBE,9.9 µM
Cc1ccc(B(O)O)cc1OCc1ccccc1 [Compound 2],cellular toxicity,[2],low toxicity against HB-2
same,Ki,[1],2400 nM
same,Ki,Anopheles gambiae CBE,170 nM
same,Ki,Aedes aegypti CBE,3.1 µM
